Test results from patent US12351565B2, “Aromatic compound and preparation method therefor and use thereof” (SHANGHAI JIANHE PHARMACEUTICAL & TECHNOLOGY CO. LTD., priority 2018, dated 2025).
Structures can show the parent of a compound that is named as a salt. Where two headings read alike, the source gives them in different places.

Tests used:
C57 mice [1] = assay: Forced swimming experiment, oral administration to mice; format: in vivo; settings: inhibition of immobility time, C57 mice; for 1 h inhibition rate: forced swimming 1 h after single oral (intragastric) 20 mg/kg; for 24 h inhibition rate: forced swimming 24 h after single oral (intragastric) 20 mg/kg
Description: 1 h and 24 h after a single oral administration of 20 mg/kg, forced swimming experiments were then carried out to investigate the effects of different compounds on depression-like behavior in C57 mice.
(§1) Experimental animals were 6-week aged C57 mice, male, C57 mice were purchased from Shanghai SLAC Laboratory Animal Co., Ltd., with a body weight of 20.45±0.19 g. Before the experiment, they arrived at the Animal Feeding Center of Shanghai Institute of Materia Medica, Chinese Academy of Sciences (Animal Production License: SCXK9[Shanghai]2004-0002, usage license: SYXK[Shanghai]2003-0029), and adapted for 3 days or more in animal facilities. They were bred at 6 animals/cage. The breeding environment was room temperature 23±0.2° C., with 12/12 hours alternation of day and night. Before the behavioral test, the animals should be moved to the behavioral test operation room 2 hours in advance to adapt to the environment and reduce their tension.
Preparation of the test product: each test compound was accurately weighed and dissolved in 0.9% NaCl solution, mixed thoroughly, and prepared into 1 mg/ml and 2 mg/ml solutions respectively, and set aside.
(§2) 24 hours before the administration, the mice were placed in a cylindrical tank to adapt to the aquatic environment for 10 min. On the day of the behavioral test, the animals were respectively administered intragastrically once at 1 h and 24 h before the behavioral test. The mice were placed individually into a cylindrical glass tank with a height of 30 cm and a diameter of 20 cm. The water depth in the tank was 15 cm, so that the animals could not escape from the glass tank and their feet and tails could not touch the bottom of the tank, the water temperature was 23° C.-25° C. A 6 minute video was taken after the mouse entered into water. Since most animals were very active in the first two minutes, the immobility time in the following 4 minute were calculated (criterion of immobility: the mouse stops struggling in the water, stays still and has small limbs movement to maintain balance or to keep a floating state).
(§3) The antidepressant effect of a compound was evaluated by the ability of the compound to reduce the immobility time of the animal in the forced swimming test as compared with the blank group. Inhibition rate1 h(%)=immobility time(blank, 1 h)−immobility time(administration, 1 h)/immobility time(blank, 1 h)×100% Inhibition rate24h(%)=immobility time(blank, 24 h)−immobility time(administration, 24 h)/immobility time(blank, 24 h)×100%

hERG potassium channel = molecular target: T1, hERG potassium channel (Homo sapiens, UniProt Q12809); assay: hERG potassium channel inhibition experiment (automatic patch clamp, CHO-hERG cells); format: cell-based; settings: Qpatch, highest tested concentration 40 μM, read-out: IC50, blocking effect on the hERG potassium current
T1 construct: expressed in transfected cells
Description: Fully automatic patch clamps were used to test the blocking effect of the compounds of the present invention on the hERG potassium current on a stable cell line transfected with hERG potassium channels.
CHO-hERG cells were cultured in 175 cm^2 culture flask. When the cell grew to 60-80% confluence, the culture medium was removed. The cells were washed with 7 ml PBS (Phosphate Buffered Saline) once, and then 3 ml Detachin was added to digest.
After the digestion was completed, 7 ml culture medium was added to neutralize. The mixture was centrifuged, and after the supernatant was removed, 5 ml culture medium was added to resuspend to ensure the cell density was 2×10^6-5×10^6/ml.
Single-cell high-impedance sealing and whole-cell mode formation were all automatically completed by using the Qpatch instrument. After the recording mode was obtained, the cell was clamped at −80 millivolts. Before +40 millivolt depolarization stimulation for 5 seconds was given, −50 millivolt pre-voltage for 50 millisecond was first given, then repolarized to −50 millivolt for 5 seconds, and then returned to −80 millivolt. This voltage stimulus was applied every 15 seconds. After recording for 2 min, extracellular fluid was given, and recording was conducted for 5 min, and then the dosing process started. The compound concentration started from the lowest test concentration, and each test concentration was given for 2.5 min. […] At least 3 cells per concentration (n≥3) were tested.
20 mM compound mother liquor was diluted with extracellular fluid. 5 μL of 20 mM compound mother liquor was taken and added into 2495 μL extracellular fluid, so that it was diluted 500 times to 40 μM, and was then serially diluted 3 times in an extracellular fluid containing 0.2% DMSO to obtain the final concentration to be tested.
The highest tested concentration was 40 μM, and the concentrations were in order as follows: 40, 13.33, 4.44, 1.48, 0.49, 0.16 μM, totally 6 concentrations.
Experimental data were analyzed by XLFit software.

C57 mice [2] = assay: Forced swimming experiment, intraperitoneal administration to mice; format: in vivo; settings: Mus musculus, ip
Description: The forced-swimming test is currently the most widely used classic method to evaluate the antidepressant effects of compounds in rodents. […] The time in immobile state of experimental animal is observed and recorded, which can be used to evaluate the effect of antidepressant compounds.
1 h and 24 h after a single intraperitoneal administration of 10 mg/kg, forced swimming tests were respectively carried out to investigate the effects of different compounds on depression-like behaviors of C57 mice.
as §1, with “male, and” for “male,”
Preparation of the test product: each test compound was accurately weighed and dissolved in 0.9% NaCl solution, mixed thoroughly, and prepared as a 1 mg/ml solution, set aside.
as §2, with “intraperitoneally” for “intragastrically”
as §3, with “group. The shorter the immobility time of the animal to be tested, the higher the inhibition rate and the stronger the antidepressant activity.” for “group.”, “rate24 h(%)=immobility” for “rate24h(%)=immobility”

[3] = In vivo pharmacokinetic experiment in rats; settings: SD rats
Description: Healthy male SD rats were randomly divided into groups with 3 rats in each group, and the test compounds were administrated intragastrically or by intravenous injection. See Table 8 below for specific arrangements:
(§4) Each test compound was dissolved in physiological saline to prepare a certain concentration of solution for administration.
(§5) One day before administration, the rats were fasted and allowed to drink freely for 12-14 h. The rats were fed 4 h after administration. 0.030 mL of blood was took from each animal each time through the orbit, and anticoagulated with EDTAK2 anticoagulation. The collection time points were as follows: in PO group, 5 min, 10 min, 15 min, 30 min, 1 h, 2 h, 4 h, 6 h, 8 h, 24 h after administration of test substance; in IV group, 2 min, 5 min, 15 min, 30 min, 1 h, 2 h, 4 h, 6 h, 8 h, 24 h after administration of test substance. After blood samples were collected, they were placed on ice and centrifuged to separate the plasma within 30 minutes (centrifugation conditions: 5000 rpm, 10 minutes, 4° C.). The sample were stored at −80° C. before analysis.

[4] = Distribution in mouse brain tissue; format: in vivo, C57 mice
Description: Healthy male C57 mice were randomly divided into groups with 3 mice in each group, and the test compound was administrated intragastrically. See Table 10 below for specific arrangements:
as §4
(§6) One day before administration, the mice were fasted and allowed to drink freely for 12-14 h. The mice were fed 4 h after administration.
After the animals were bled, the brain tissue was collected. After washing, 50% ice methanol was added for homogenate at 1:4 (m/v). The collection time points was 10 min, 15 min, 30 min, 1 h, 2 h after administration of the test substance; 30.0 μL of tissue sample was taken (the sample was taken out from the refrigerator at −80° C., vortexed for 30 seconds after natural melting at room temperature) and added into a 1.5 mL centrifuge tube. 300.0 μL internal standard solution (30 ng/mL […] acetonitrile solution) was added, the mixture was vortex for 60 seconds and then centrifuged for 3 minutes (centrifugal force was 12000 rpm); 75 μL of the supernatant was taken and transferred to 96-well injection plate loaded with equal volume of water, shaken and mixed well, and subjected to LC-MS/MS analysis, wherein injection volume was 10 μL.

[5] = In vivo pharmacokinetic experiment in mice; settings: C57 mice
Description: Healthy male C57 mice were randomly divided into groups with 3 mice in each group, and the test compounds were administrated intragastrically or by intravenous injection. See Table 6 below for specific arrangements:
as §4, §6
as §5, with “0.030” for “One day before administration, the rats were fasted and allowed to drink freely for 12-14 h. The rats were fed 4 h after administration. 0.030”, “EDTAK2.” for “EDTAK2 anticoagulation.”, “5” for “5 min, 10”

[6] = 1 h, read-out: 1 h inhibition rate
[7] = 24 h, read-out: 24 h inhibition rate
[8] = male, rat, iv, 10 mg/kg i.v., plasma
[9] = male, rat, po, 10 mg/kg p.o., plasma
[10] = male, rat, po, 100 mg/kg p.o., plasma
[11] = male, mouse, iv, 5 mg/kg i.v., plasma
[12] = male, mouse, po, 20 mg/kg p.o., plasma

T1 sequence (Q12809 whole entry): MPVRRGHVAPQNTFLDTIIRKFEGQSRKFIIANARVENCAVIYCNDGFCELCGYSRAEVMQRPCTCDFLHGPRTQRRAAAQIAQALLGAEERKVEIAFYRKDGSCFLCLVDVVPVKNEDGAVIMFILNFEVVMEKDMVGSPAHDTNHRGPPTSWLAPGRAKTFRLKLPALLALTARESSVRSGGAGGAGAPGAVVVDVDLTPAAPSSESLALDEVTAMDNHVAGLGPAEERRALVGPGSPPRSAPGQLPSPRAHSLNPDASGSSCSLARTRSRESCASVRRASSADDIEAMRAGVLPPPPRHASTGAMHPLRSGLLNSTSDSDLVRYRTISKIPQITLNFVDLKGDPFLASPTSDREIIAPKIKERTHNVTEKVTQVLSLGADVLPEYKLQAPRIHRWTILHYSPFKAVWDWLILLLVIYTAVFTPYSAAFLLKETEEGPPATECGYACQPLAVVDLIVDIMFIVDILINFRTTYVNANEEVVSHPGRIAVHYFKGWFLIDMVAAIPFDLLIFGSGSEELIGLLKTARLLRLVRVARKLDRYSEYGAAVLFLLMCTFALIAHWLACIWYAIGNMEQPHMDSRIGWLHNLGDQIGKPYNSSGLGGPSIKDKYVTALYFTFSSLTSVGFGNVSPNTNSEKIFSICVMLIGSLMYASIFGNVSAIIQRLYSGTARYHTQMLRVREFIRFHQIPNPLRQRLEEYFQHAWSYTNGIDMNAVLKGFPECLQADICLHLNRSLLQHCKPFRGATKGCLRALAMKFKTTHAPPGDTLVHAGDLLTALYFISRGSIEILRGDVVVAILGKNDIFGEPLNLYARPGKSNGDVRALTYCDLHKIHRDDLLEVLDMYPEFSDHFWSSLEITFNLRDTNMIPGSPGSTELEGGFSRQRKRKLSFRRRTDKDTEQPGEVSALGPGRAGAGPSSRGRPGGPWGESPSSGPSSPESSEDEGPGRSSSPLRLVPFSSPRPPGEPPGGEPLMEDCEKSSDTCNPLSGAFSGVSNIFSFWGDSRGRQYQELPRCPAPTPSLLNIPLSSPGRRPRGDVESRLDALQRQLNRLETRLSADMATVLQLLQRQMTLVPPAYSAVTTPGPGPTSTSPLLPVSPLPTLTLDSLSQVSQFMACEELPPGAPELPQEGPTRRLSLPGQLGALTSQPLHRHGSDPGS

SMILES: Cl.NC1(c2cccc(F)c2F)CCCC(O)C1=O (stereo not shown) [Compound 44, 2-amino-2-(2,3-difluorophenyl)-6-hydroxycyclohexane-1-one hydrochloride]
- 1 h inhibition rate (C57 mice [1]): 27.3 ± 1.2%
- 24 h inhibition rate (C57 mice [1]): 22.3 ± 2.3%
- IC50 (hERG potassium channel): > 40 µM
- inhibition in vivo at 10 mg/kg (C57 mice [2]; [6]): 36.5 ± 2.9%
- inhibition in vivo at 10 mg/kg (C57 mice [2]; [7]): 53.5 ± 0.2%

SMILES: NC1(c2ccccc2C(F)(F)F)CCCC(O)C1=O (stereo not shown) [Compound 45, 2-amino-6-hydroxy-2-(2-(trifluoromethyl)phenyl)cyclohexane-1-one hydrochloride]
- IC50 (hERG potassium channel): > 40 µM
- inhibition in vivo at 10 mg/kg (C57 mice [2]; [6]): 33 ± 4.1%
- inhibition in vivo at 10 mg/kg (C57 mice [2]; [7]): 44.5 ± 2.2%

SMILES: Cl.N[C@@]1(c2ccc(C(F)(F)F)cc2)CCC[C@@H](O)C1=O [Compound 50, (2R,6R)-2-amino-6-hydroxy-2-(4-(trifluoromethyl)phenyl)cyclohexane-1-one hydrochloride]
- 1 h inhibition rate (C57 mice [1]): 34.5 ± 3.1%
- 24 h inhibition rate (C57 mice [1]): 35.6 ± 3.6%
- AUC0-t ([3]; 10 mg/kg i.v., plasma): 10976 ngh/mL
- AUC0-∞ ([3]; 10 mg/kg i.v., plasma): 11306 ngh/mL
- F ([3]; 10 mg/kg p.o.): 82.5%
- AUC0-t ([3]; 10 mg/kg p.o., plasma): 9060 ngh/mL
- AUC0-∞ ([3]; 10 mg/kg p.o., plasma): 9533 ngh/mL
- F ([3]; 100 mg/kg p.o.): 77.8%
- AUC0-t ([3]; 100 mg/kg p.o., plasma): 85478 ngh/mL
- AUC0-∞ ([3]; 100 mg/kg p.o., plasma): 87916 ngh/mL
- MRT [3, 8]: 4.56 h
- half-life [3, 8]: 4.84 h
- clearance ([3]; male, rat, plasma, iv, 10 mg/kg i.v.): 14.8 mL/min/kg
- Vd ([3]; male, rat, plasma, iv, 10 mg/kg i.v., read-out: Vss): 4.03 L/kg
- Cmax [3, 9]: 3110 ng/mL
- MRT [3, 9]: 6.29 h
- Tmax [3, 9]: 0.31 h
- half-life [3, 9]: 5.73 h
- Cmax [3, 10]: 17300 ng/mL
- MRT [3, 10]: 5.47 h
- Tmax [3, 10]: 0.67 h
- half-life [3, 10]: 4.86 h
- AUC0-∞ ([4]; C57 mouse brain tissue, 20 mg/kg p.o.): 18509 ng·h/g
- concentration at 10 min ([4]; male, brain, po, C57 mouse, 20 mg/kg p.o. (intragastrically), 10 min): 19400 ng/g
- half-life ([4]; male, po, C57 mouse brain tissue, 20 mg/kg p.o.): 1.44 h
- AUC0-t ([5]; 5 mg/kg i.v., plasma): 3022 ngh/mL
- AUC0-∞ ([5]; 5 mg/kg i.v., plasma): 3075 ngh/mL
- F ([5]; 20 mg/kg p.o. vs 5 mg/kg i.v.): 112%
- AUC0-t ([5]; 20 mg/kg p.o., plasma): 13548 ngh/mL
- AUC0-∞ ([5]; 20 mg/kg p.o., plasma): 13624 ngh/mL
- MRT [5, 11]: 1.29 h
- half-life [5, 11]: 1.67 h
- clearance ([5]; male, mouse, plasma, iv, 5 mg/kg i.v.): 27.2 mL/min/kg
- Vd ([5]; male, mouse, plasma, iv, 5 mg/kg i.v., read-out: Vss): 2.1 L/kg
- Cmax [5, 12]: 8100 ng/mL
- MRT [5, 12]: 2.49 h
- Tmax [5, 12]: 6.6 min
- half-life [5, 12]: 4.16 h

SMILES: NC1(c2c(F)cc(F)cc2F)CCCC(O)C1=O (stereo not shown) [Compound 73, 2-amino-6-hydroxy-2-(2,4,6-trifluorophenyl)cyclohexane-1-one hydrochloride]
- IC50 (hERG potassium channel): > 40 µM
- inhibition in vivo at 10 mg/kg (C57 mice [2]; [6]): 38.6 ± 6%
- inhibition in vivo at 10 mg/kg (C57 mice [2]; [7]): 36.9 ± 3.9%
